Legend:
mouse Bak protein = target: T1, mouse Bak protein (Mus musculus, UniProt O08734); experiment: Isothermal titration calorimetry (ITC), mouse protein; format: binding; conditions: mouse wild type Bak
T1 construct: His tag; made in house; host or cells: Escherichia coli BL21 DE3
Method: The binding affinity of BKA-073 with Bak protein was examined by isothermal titration calorimetry (ITC) assay as described, [28]. ITC assay was carried out in the auto-iTC200 instrument (MicroCal, GE) at 25 °C. Purified recombinant human or mouse Bak protein was loaded into a 96 Deepwell PP plate. BKA-073 compound was then titrated stepwise into the protein for a total of 16 injections. Reference power and initial delay were set as 5 µCal/sec and 60s, respectively. A string speed of 750 rpm was used for the ITC measurements. The binding constant (Kd) value was determined by fitting the titration curve to a one-site binding mode, using the Origin software provided by the manufacturer.
Figure S3. […] The binding constant (KD) value was determined by fitting of the titration curve to a 1- […]
(1 x 10^5 cells) was transferred to a 5 ml culture tube, followed by the addition of 5 μl of FITC Annexin V and 5 μl propidium iodide (PI). […] Samples were analyzed by flow cytometry (BD FACSCantoTMII, BD Biosciences, San Jose, CA). ∆% cell death was calculated with the formula: (% cell death treated - % cell death non-treated) as described […]
Fluorescence polarization (FP) assay
Fluorescence polarization assay was carried out as described previously. […] The FP values (in millipolarization units) were measured using a fluorescence microplate reader at 485/530 nm (Gemini XPS, Molecular Devices). […]

[1] = tested on: LSL-KRAS G12D LKB1 fl/fl (KL) mice lung tumors; experiment: Mutant KRAS-driven lung cancer GEMM (KL mice); format: in vivo, mouse; conditions: 15 mg/kg/d i.p.
Method: LSL-KRAS^G12D LKB1^fl/fl (KL) were generated as previously described [30]-[33]. All studies were performed on protocols approved by the Emory University IACUC. Six weeks after cre-adenovirus infection, KL mice were treated with BKA-073 intraperitoneally (i.p) for 48 days. Mice were euthanized with CO2 asphyxiation. After lung perfusion with PBS, the left lung lobes were harvested from mice in control and BKA-073 treated groups and immediately fixed in 10% neutral buffered formalin (Fisher Scientific, Kalamazoo, MI), horizontally cut into three equal parts and embedded in paraffin blocks. Three parts of lung tissues representing different regions of the lung were vertically put into paraffin blocks for hematoxylin-eosin (H&E) staining. Lung tissue samples were sectioned at 3 µm three times for placement of slides and stained with H&E. H&E stained samples were scanned using Nano Zoomer 2.0-HT (Hamamatsu, Japan) and images were analyzed using ImageScope viewing software (Leica Biosystems, Buffalo Grove, IL). Tumor numbers were counted under a microscope and tumor area was quantified using Openlab modular imaging software (PerkinElmer, Waltham, MA) as previously described, [32].
KRAS is the most commonly mutated oncogene, yet no effective targeted therapies exist for KRAS-mutant cancers. […] Since BKA-073 is able to induce apoptosis by activation of Bak via facilitating its oligomerization in vitro and in vivo (Figures 1, 2 and 4), we were interested in testing whether BKA-073 is effective for the treatment of mutant KRAS-driven cancer. To assess the potency of BKA-073 in KRAS mutant-driven lung cancer, lox-stop-lox (LSL)-KRAS^G12D LKB1^fl/fl (i.e. KL) mice were generated and bred out as previously described, [31], [50], [51]. These mice contain a KRAS^G12D LSL knock-in allele and a floxed allele of LKB1 (LKB1^fl/fl), [31]. Primary lung adenocarcinoma was detectable as early as 6 weeks after intranasal administration of 5×10^6 pfu adenovirus expressing Cre recombinase (AdeCre) in KRAS^G12D LKB1^fl/fl (KL) mice. […] After treatment for 48 days, KL mice were euthanized with CO2 asphyxiation. Lungs with tumor and normal lung tissues were collected for further analysis. To quantify tumor burden and tumor multiplicity in mice, H&E-stained lungs were imaged with morphometric software to quantify the surface area composed of tumor as opposed to normal tissue of representative cross-sections of each lung lobe for each mouse as previously described [31]-[33]. […] There were 4 deaths out of 6 mice in the control group versus 2 death out of 6 mice in the BKA-073 treatment group […], calculated up to 48 days before euthanization.

T1 sequence (O08734 whole entry): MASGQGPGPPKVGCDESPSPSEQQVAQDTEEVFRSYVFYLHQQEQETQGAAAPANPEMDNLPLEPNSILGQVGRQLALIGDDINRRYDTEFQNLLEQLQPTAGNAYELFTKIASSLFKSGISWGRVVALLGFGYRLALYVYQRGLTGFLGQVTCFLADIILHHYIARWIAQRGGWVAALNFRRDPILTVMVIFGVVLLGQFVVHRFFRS

COc1ccc2nc3ccccc3c(NCCNCC(C)O)c2c1 (centres unmarked) [BKA-073]
Kd (mouse Bak protein): 93.4 ± 7.91 nM | tumor burden in the lung ([1]; 48 days): significant reduction | tumor multiplicity in the lung ([1]; 48 days): significant reduction | deaths out of 6 mice ([1]; up to 48 days, control 4 of 6, p < 0.01): 2 | survival ([1]; vs control group): significantly prolonged survival

From publication PMC8344021, “Discovery of Small Molecule Bak Activator for Lung Cancer Therapy” (Theranostics, 2021)
